Common to all, as to format: cell-based, mouse
Assay [1] relates to LCPs. The assay is described as follows: RNA sequencing of LCP organoids with and without pargyline. On the procedure: RNA sequencing. After RNA extractions were performed using the RNeasy Micro Kit (QIAGEN), the library preparation and RNA-sequencing was performed at the Dana Farber Cancer Institute Molecular Biology Core Facility. In brief, cDNA was synthesized from 2.5 ng of RNA using SMARTer V4 Kit (Clontech). Following fragmentation using M220 Focused-Ultrasonicator (Covaris), 2 ng of sheared cDNA was taken for library preparation using ThruPLEX DNA-seq kit (Rubicon Genomics). NextSeq500 Single-End 75 bp (SE75) Sequencing (Illumina) was performed on all 12 samples in one lane after they were indexed and pooled in equimolar to ensure 20-30 million reads per sample. Reads were aligned to mm10 augmented with Ensembl gene build 75 with STAR v2.5.2b (Dobin et al., 2013). Reads and alignments were assessed for quality using FastQC. Differential expression was evaluated using DESeq2. Genes were called differentially expressed when the absolute value of the fold change was >1.25 and FDR, was smaller than 0.05. Subsequent pathway analysis was performed using Ingenuity Pathway Analysis software (Qiagen).
The effect of pargyline on the differentiation of hair cells could be broad and we therefore evaluated its effect on the gene expression patterns of Lsd1 inhibitor-treated and untreated samples. The samples analyzed included the undifferentiated organoids following expansion (DO) and the differentiated organoids following 10 days of differentiation, with and without pargyline treatment (D10). […] In addition, 90% of the genes aligned to the genome and over 22,000 genes were detected in each sample. […] The times here refer to the beginning and end of differentiation and the finding was that most of the difference between samples was due to the 10 days of differentiation. Consistently, the principle component analysis (PCA) clustered the samples by the time of differentiation (responsible for 62% of the variation between samples) and the treatment (20% of the variation: FIG. 10B). Lsd1 inhibition in the presence of CHIR99021 altered gene expression and caused the pargyline-treated samples to cluster separately from those treated with CHIR99021 alone.
Differential expression analysis of the samples was also performed using DESeq2 (Love et al., 2014). […] We further compared the gene expression profiles of the samples. Compared to the undifferentiated (DO), approximately […]) and 3365 genes were differentially expressed in the D10 or D10+pargyline samples, respectively. The addition of pargyline compared to the untreated samples altered the expression of approximately 474 genes (padj<0.05, fold change >1.25).
Gene set enrichment analysis (GSEA) using gene sets associated with biological process gene ontology terms (Subramanian et al., 2005) was next performed to gain insight into the relevant pathways altered in this dataset. The analysis accounts for coordinated differential expression over pre-defined gene sets, instead of changes in individual genes. Pathways related to the cell cycle and proliferation were the most enriched after pargyline treatment, particularly the p53 and PI3/AKT, MAPK and RAS pathways (−0.503, −0.33). although these cells were in the differentiation phase. […] Here we present the top 15 differentially expressed hair cell receptor genes. […] Collectively, these findings corroborate increasing hair cell differentiation with Lsd1 inhibition.

The test system of assay [2] is Atoh1 locus. The assay is described as follows: Chromatin immunoprecipitation (ChIP-qPCR) of histone marks on the Atoh1 gene in LCPs. On the procedure:
Chromatin immunoprecipitation. The colonies were treated with Cell Recovery solution for up to 2 hours and TrypleE for 30 minutes. The cells were fixed with 1% formaldehyde for 30 minutes at room temperature before termination with 0.1M Glycine. The cells were treated with lysis buffer (0.5M EDTA and 0.05% Triton-X 100) for 30 minutes on ice and then with nuclear extraction buffer (0.5M EDTA, 20% SDS, 1M Tris-HCl, pH 8) for 10 minutes. The cross-linked chromatin was sonicated for 30 minutes (30×30 seconds with 30 second intervals) and shearing quality confirmed by running 10 ul of the sample on a 1% agarose gel. The input sample used was 5% of the total chromatin. Lo-bind tubes containing Dyna-A and Dyna-B beads in PBS-BSA were incubated with 3 μg of Primary antibody for 6 hours-overnight with rotation at 4° C. The antibodies used were as follows H3K4me (ab8895: Abcam), H3K4me2 (ab77661: Abcam), H3K9me2 (ab1220; Abcam) and Lsd1 (ab17721: Abcam). The chromatin samples were treated with dilution buffer (1% Triton-X 100, 0.5M EDTA, 5M NaCl, 1M Tris-HCl, pH 8 and 1% Protease inhibitors×100) and incubated with the prepared beads for 6 hours-overnight. The beads were captured on a magnetic rack, washed with ChIP RIPA buffer (1M Hepes, 0.5M EDTA, 10% Na-deoxycholate, NP-40 and 5M LiCl: 6×10 minute washes), TE buffer (1M Tris-HCl and 0.5M EDTA: 2×10 minute washes), resuspended in reverse crosslinking solution (0.5M NaHCO3 and 20% SDS) and incubated overnight at 65° C. DNA was recovered using the Active motif DNA extraction kit (58002: Active Motif). RT-qPCR analyses were performed on immunoprecipitated DNA using specific primers described in Table 2. The results were calculated and presented as relative fold enrichment over the input.
In order to further dissect the mechanism of Lsd1 activity, we analyzed changes in epigenetic marks on several sites along the Atoh1 gene using chromatin immunoprecipitation. We used the LCPs starting at day 0 (D0) of differentiation with day 10 (D10) as the endpoint (FIG. 5A). Lsd1 has been characterized to demethylate the activating epigenetic marks H3K4me and H3K4me2 (Shi et al., 2004). […] Consistently, we observed accumulation of the activating H3K4me2 mark at the proximal promoter region (region 2) of the Atoh1 gene during hair cell differentiation (D10, p<0.05*: FIG. 5B). […] In addition, we examined the enrichment levels of H3K4me around the Atoh1 locus. […] Collectively, these findings reveal that Lsd1 inhibition increases accumulation of activating epigenetic marks, thereby facilitating the opening of the chromatin and activating transcription of the Atoh1 gene.
As Lsd1 is also known to demethylate H3K9me2, we analyzed the changes in the levels of this repressive mark at the Atoh1 locus (Metzger et al., 2005).

Assay [3] relates to LCP organoids. The assay is described as follows: Immunostaining of differentiated organoids for Atoh1 and Myo7a. The source says:
Immunochemistry. […] Nuclei were visualized using DAPI (Vector Laboratories).

Where [4] appears, read: D10 with pargyline compared to untreated.
Where [5] appears, read: pargyline-treated samples, p<0.05.

With `C#CCN(C)Cc1ccccc1` [pargyline, N-Methyl-N-propargylbenzylamine], the “genes differentially expressed compared to the undifferentiated (D0)” value in assay [1] (D10+pargyline samples versus D0) is listed as around 3365 genes. In assay [1] (setting [4]), this compound showed a genes downregulated of 330 genes and a genes upregulated of 144 genes. Moreover, in assay [1] (D10 with pargyline compared to untreated, padj<0.05, fold change >1.25), the “genes with altered expression” value was “approximately 474 genes”. Moreover, the “gene set enrichment score, development of auditory receptors (GO:0060117)” value in assay [1] (GSEA after pargyline treatment, p<0.1) worked out at 0.62. In assay [1] (setting [5]), the “top 15 differentially expressed Wnt target genes: number downregulated” value stood at 13 genes and the “top 15 differentially expressed Wnt target genes: number upregulated” value was found to be 2 genes. In addition, the “levels of H3K4me2 at the enhancer regions (region 5) of Atoh1” value in assay [2] (D10 with pargyline) is listed as “not statistically significant”. The “level of H3K4me2 at the proximal promoter region (region 2) of Atoh1” value in assay [2] (D10 with pargyline compared to D0, p<0.01) was “significantly increased”. Besides, in assay [2] (addition of pargyline), the “enrichment for H3K9me2 on the Atoh1 gene” value is given as “did not significantly alter”. For the same compound, in assay [2] (after pargyline treatment, p<0.01), the “H3K4me mark at the enhancer region (region 5) of Atoh1” value is “significant enrichment”. For the same compound, in assay [3], the “immunostaining for Atoh1 and Myo7a” value is listed as “almost uniformly positive”.

Values taken from patent publication US20240245702A1, “Inhibition of Lysine Demethylase 1 (Lsd1) Induces Differentiation of Hair Cells” (Massachusetts Eye and Ear Infirmary, priority 2018, published 2024).
